From publication PMC11157767 (Molecular Cancer, 2024)

Tested on: TRIM24-MET-i cells
Protocol: The number of unique and shared differentially expressed genes between each comparison are shown in parentheses. A linear regression line is depicted along with Pearson’s correlation coefficient (r) and its associated p-value. […] Common negatively enriched genesets between all three comparisons are in bold. c, Heatmaps showing expression of Hallmark_Myc_Target_v1/2 genes for indicated cells and treatment comparisons (TRIM-MET cells were treated in vitro, TFG-MET cells in vivo). Select leading edge genes from GSEA are labeled.

SMILES: CNC(=O)c1ccc(-c2cnc3ncc(Cc4ccc5ncccc5c4)n3n2)cc1F [Capmatinib]
- NES HALLMARK_ADIPOGENESIS (GSEA v. DMSO): -0.9589
- NES HALLMARK_ALLOGRAFT_REJECTION (GSEA v. DMSO): -1.401
- NES HALLMARK_ANDROGEN_RESPONSE (GSEA v. DMSO): -1.889
- NES HALLMARK_APICAL_JUNCTION (GSEA v. DMSO): -1.091
- NES HALLMARK_APICAL_SURFACE (GSEA v. DMSO): 1.792
- NES HALLMARK_APOPTOSIS (GSEA v. DMSO): -1.59
- NES HALLMARK_BILE_ACID_METABOLISM (GSEA v. DMSO): 1.602
- NES HALLMARK_CHOLESTEROL_HOMEOSTASIS (GSEA v. DMSO): -1.359
- NES HALLMARK_COAGULATION (GSEA v. DMSO): -1.635
- NES HALLMARK_COMPLEMENT (GSEA v. DMSO): -1.904
- NES HALLMARK_DNA_REPAIR (GSEA v. DMSO): -0.965
- NES HALLMARK_E2F_TARGETS (GSEA v. DMSO): -1.195
- NES HALLMARK_EPITHELIAL_MESENCHYMAL_TRANSITION (GSEA v. DMSO): -1.076
- NES HALLMARK_ESTROGEN_RESPONSE_EARLY (GSEA v. DMSO): -1.483
- NES HALLMARK_ESTROGEN_RESPONSE_LATE (GSEA v. DMSO): -1.018
- NES HALLMARK_FATTY_ACID_METABOLISM (GSEA v. DMSO): 0.99
- NES HALLMARK_G2M_CHECKPOINT (GSEA v. DMSO): -1.318
- NES HALLMARK_GLYCOLYSIS (GSEA v. DMSO): -1.3547
- NES HALLMARK_HEDGEHOG_SIGNALING (GSEA v. DMSO): -1.3433
- NES HALLMARK_HEME_METABOLISM (GSEA v. DMSO): 1.243
- NES HALLMARK_HYPOXIA (GSEA v. DMSO): -1.387
- NES HALLMARK_IL2_STAT5_SIGNALING (GSEA v. DMSO): -2.015
- NES HALLMARK_IL6_JAK_STAT3_SIGNALING (GSEA v. DMSO): -0.9282
- NES HALLMARK_INFLAMMATORY_RESPONSE (GSEA v. DMSO): -1.659
- NES HALLMARK_INTERFERON_ALPHA_RESPONSE (GSEA v. DMSO): 1.273
- NES HALLMARK_INTERFERON_GAMMA_RESPONSE (GSEA v. DMSO): -0.9862
- NES HALLMARK_KRAS_SIGNALING_DN (GSEA v. DMSO): 1.126
- NES HALLMARK_KRAS_SIGNALING_UP (GSEA v. DMSO): -1.881
- NES HALLMARK_MITOTIC_SPINDLE (GSEA v. DMSO): -1.303
- NES HALLMARK_MTORC1_SIGNALING (GSEA v. DMSO): -2.1602
- NES HALLMARK_MYC_TARGETS_V1 (GSEA v. DMSO): -2.499
- NES HALLMARK_MYC_TARGETS_V2 (GSEA v. DMSO): -2.697
- NES HALLMARK_MYOGENESIS (GSEA v. DMSO): -0.8301
- NES HALLMARK_NOTCH_SIGNALING (GSEA v. DMSO): -1.186
- NES HALLMARK_OXIDATIVE_PHOSPHORYLATION (GSEA v. DMSO): -1.201
- NES HALLMARK_P53_PATHWAY (GSEA v. DMSO): -0.9833
- NES HALLMARK_PANCREAS_BETA_CELLS (GSEA v. DMSO): 1.071
- NES HALLMARK_PEROXISOME (GSEA v. DMSO): 1.028
- NES HALLMARK_PI3K_AKT_MTOR_SIGNALING (GSEA v. DMSO): -1.164
- NES HALLMARK_PROTEIN_SECRETION (GSEA v. DMSO): -1.171
- NES HALLMARK_REACTIVE_OXYGEN_SPECIES_PATHWAY (GSEA v. DMSO): -1.072
- NES HALLMARK_SPERMATOGENESIS (GSEA v. DMSO): 0.7417
- NES HALLMARK_TGF_BETA_SIGNALING (GSEA v. DMSO): -1.868
- NES HALLMARK_TNFA_SIGNALING_VIA_NFKB (GSEA v. DMSO): -2.324
- NES HALLMARK_UV_RESPONSE_DN (GSEA v. DMSO): -1.271
- NES HALLMARK_UV_RESPONSE_UP (GSEA v. DMSO): -1.537
- NES HALLMARK_WNT_BETA_CATENIN_SIGNALING (GSEA v. DMSO): -1.2104
- NES HALLMARK_XENOBIOTIC_METABOLISM (GSEA v. DMSO): 0.8191
- NES KRIGE_RESPONSE_TO_TOSEDOSTAT_6HR_DN (GSEA v. DMSO): -2.5861
- NES KRIGE_RESPONSE_TO_TOSEDOSTAT_24HR_DN (GSEA v. DMSO): -2.743
- NES LEE_BMP2_TARGETS_DN (GSEA v. DMSO): -2.881
- NES PUJANA_CHEK2_PCC_NETWORK (GSEA v. DMSO): -2.452
- NES WEI_MYCN_TARGETS_WITH_E_BOX (GSEA v. DMSO): -2.939
- ES GOBP_NCRNA_METABOLIC_PROCESS (GSEA, v. DMSO): -0.717
- ES GOBP_NCRNA_PROCESSING (GSEA, v. DMSO): -0.737
- ES GOBP_RIBONUCLEOPROTEIN_COMPLEX_BIOGENESIS (GSEA, v. DMSO): -0.7048
- ES GOBP_RIBOSOME_BIOGENESIS (GSEA, v. DMSO): -0.7793
- ES GOBP_RRNA_METABOLIC_PROCESS (GSEA, v. DMSO): -0.7679
- ES GOCC_MITOCHONDRIAL_ENVELOPE (GSEA, v. DMSO): -0.4986
- ES GOCC_NUCLEOLUS (GSEA, v. DMSO): -0.546
- ES GOCC_ORGANELLE_INNER_MEMBRANE (GSEA, v. DMSO): -0.5385
- ES GOCC_PRERIBOSOME (GSEA, v. DMSO): -0.8527
- ES GOCC_RIBONUCLEOPROTEIN_COMPLEX (GSEA, v. DMSO): -0.5996
- ES GOMF_CATALYTIC_ACTIVITY_ACTING_ON_A_TRNA (GSEA, v. DMSO): -0.6843
- ES GOMF_CATALYTIC_ACTIVITY_ACTING_ON_RNA (GSEA, v. DMSO): -0.6193
- ES GOMF_RNA_HELICASE_ACTIVITY (GSEA, v. DMSO): -0.6953
- ES GOMF_RRNA_BINDING (GSEA, v. DMSO): -0.7411
- ES GOMF_STRUCTURAL_CONSTITUENT_OF_RIBOSOME (GSEA, v. DMSO): -0.6124
- NES GOBP_NCRNA_METABOLIC_PROCESS (GSEA, v. DMSO): -2.6866
- NES GOBP_NCRNA_PROCESSING (GSEA, v. DMSO): -2.741
- NES GOBP_RIBONUCLEOPROTEIN_COMPLEX_BIOGENESIS (GSEA, v. DMSO): -2.64
- NES GOBP_RIBOSOME_BIOGENESIS (GSEA, v. DMSO): -2.85
- NES GOBP_RRNA_METABOLIC_PROCESS (GSEA, v. DMSO): -2.741
- NES GOCC_MITOCHONDRIAL_ENVELOPE (GSEA, v. DMSO): -1.908
- NES GOCC_NUCLEOLUS (GSEA, v. DMSO): -2.1002
- NES GOCC_ORGANELLE_INNER_MEMBRANE (GSEA, v. DMSO): -2.039
- NES GOCC_PRERIBOSOME (GSEA, v. DMSO): -2.662
- NES GOCC_RIBONUCLEOPROTEIN_COMPLEX (GSEA, v. DMSO): -2.294
- NES GOMF_CATALYTIC_ACTIVITY_ACTING_ON_A_TRNA (GSEA, v. DMSO): -2.236
- NES GOMF_CATALYTIC_ACTIVITY_ACTING_ON_RNA (GSEA, v. DMSO): -2.299
- NES GOMF_RNA_HELICASE_ACTIVITY (GSEA, v. DMSO): -2.194
- NES GOMF_RRNA_BINDING (GSEA, v. DMSO): -2.258
- NES GOMF_STRUCTURAL_CONSTITUENT_OF_RIBOSOME (GSEA, v. DMSO): -2.138
